Data published in the NIST ThermoML archive (doi:10.1021/acs.jced.6b01038).
Numbers after ± are expanded uncertainties.

Legend:
[1] = refractive index (Na D-line) (dimensionless); settings: 298.15 K; 101.3 kPa; Liquid; Standard Abbe refractometry
[2] = 298.15 K; 101.3 kPa; Liquid; Vibrating tube method

Row | SMILES | refractive index [1] | mass density [2]
1 | CCN(CC)CCO [(diethylamino)ethanol] | 1.43833 ± 0.001 | 880 ± 5 kg/m3
2 | CNCCCN [N-methyl-1,3-diaminopropane] | 1.44564 ± 0.0012 | 848 ± 5 kg/m3
3 | CN(CCO)CCO [N-methyldiethanolamine] | 1.4674 ± 0.0011 | 1037 ± 2 kg/m3
4 | O [water] | 1.33249 ± 0.001 | 
